{"source": "patent US20060166941A1", "about": "“Treatment and/or prevention of non-viral epithelial damage” (Epistem Limited, priority 2003, published 2006)", "origin": "cited, not measured here", "system": "Na+/Pi cotransport across renal cortical brush border membrane", "settings": "Hoppe et al. 1988; cited from earlier work"}
{"smiles": "O=C(O)C(Cl)(Br)P(=O)(O)O", "note": "(stereo not drawn) [alpha-Cl-alpha-Br-phosphonoacetate]", "values": [{"measurement": "inhibitory activity relative to phosphonoformic acid", "result": "threefold greater inhibitory activity than phosphonoformic acid"}]}
